Reference: the supplement of paper PMC4932681
Counter-ions that a name gives are not always drawn.

Assays:
Experiment in all cases: viability inhibition at highest dose (% inhibition); higher = more growth inhibition
BT-474 Tam1 = details: 4-OH-tamoxifen in medium 1 µM; 72 h
Outline: (§1)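 Breast cancer cell lines and their resistant derivatives were seeded into 384-well plates containing library drugs at five concentrations across a 10 000-fold range, with resistant lines kept in medium with 1 μM of the selecting drug. After 72 h at 37 °C, CellTiter-Glo viability was read on a PHERAstar and normalised to vehicle-only and positive controls. Logistic dose–response fits in the Breeze pipeline gave drug sensitivity score, relative IC50 (curve midpoint) and top-dose inhibition.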

BT-474 Tam2 = details: 4-OH-tamoxifen in medium 1 µM; 72 h
Outline: as §1

BT-474 = details: 72 h
Outline: as §1

MCF-7 Tam1 = details: 4-OH-tamoxifen in medium 1 µM; 72 h
Outline: as §1

MCF-7 = details: 72 h
Outline: as §1

T-47D Tam1 = details: 4-OH-tamoxifen in medium 1 µM; 72 h
Outline: as §1

T-47D Tam2 = details: 4-OH-tamoxifen in medium 1 µM; 72 h
Outline: as §1

T-47D = details: 72 h
Outline: as §1

ZR-75-1 Tam1 = details: 4-OH-tamoxifen in medium 1 µM; 72 h
Outline: as §1

ZR-75-1 Tam2 = details: 4-OH-tamoxifen in medium 1 µM; 72 h
Outline: as §1

ZR-75-1 = details: 72 h
Outline: as §1

SMILES	viability inhibition at highest dose (BT-474 Tam1)	viability inhibition at highest dose (BT-474 Tam2)	viability inhibition at highest dose (BT-474; 4-OH-tamoxifen in medium 0 µM)	viability inhibition at highest dose (BT-474; 4-OH-tamoxifen in medium 1 µM)	viability inhibition at highest dose (MCF-7 Tam1)	viability inhibition at highest dose (MCF-7; 4-OH-tamoxifen in medium 0 µM)	viability inhibition at highest dose (MCF-7; 4-OH-tamoxifen in medium 1 µM)	viability inhibition at highest dose (T-47D Tam1)	viability inhibition at highest dose (T-47D Tam2)	viability inhibition at highest dose (T-47D; 4-OH-tamoxifen in medium 0 µM)	viability inhibition at highest dose (T-47D; 4-OH-tamoxifen in medium 1 µM)	viability inhibition at highest dose (ZR-75-1 Tam1)	viability inhibition at highest dose (ZR-75-1 Tam2)	viability inhibition at highest dose (ZR-75-1; 4-OH-tamoxifen in medium 0 µM)	viability inhibition at highest dose (ZR-75-1; 4-OH-tamoxifen in medium 1 µM)
CN(Cc1cnc2nc(N)nc(N)c2n1)c1ccc(C(=O)N[C@@H](CCC(=O)O)C(=O)O)cc1 [Methotrexate] (drug 10000 nM)	-17.3	2.17	-11.3	-21.2	14.2	18.8	29.1	-0.232	6.27	-7.44	-4.13	15.9	10.5	22.8	2.09
O=C(CCCCCCC(=O)Nc1ccc([C@H]2O[C@@H](CSc3nc(-c4ccccc4)c(-c4ccccc4)o3)C[C@@H](c3ccc(CO)cc3)O2)cc1)NO [Tubacin] (drug 10000 nM)	21.5	33.8	28.3	84.7	22.1	55.1	67.2	45.1	39.4	57.8	90.2	32.9	19.2	18.1	24.4
Cn1cc(C2=Nc3cc(NC(=O)C(N)C4CCCCC4)cc4c3C2=CNNC4=O)cn1 (stereo not given) (drug 10000 nM)	3.49	-6.26	3.65	-3.68	1.36	31	12.3	28.7	26.5	4.48	28.4	-5.99	-2.91	8.7	-11.4
CC[C@@H]1C(=O)N(C)c2cnc(Nc3ccc(C(=O)N[C@H]4CC[C@H](N5CCN(CC6CC6)CC5)CC4)cc3OC)nc2N1C(C)C [Volasertib (BI 6727)] (drug 1000 nM)	26	9.62	13.2	25.5	0.498	24.2	24.7	24.6	21.4	30.8	-1.17	18.7	18.7	7.01	16.1
CN1CCN(c2ccc3nc(-c4c(N)c5c(F)cccc5[nH]c4=O)[nH]c3c2)CC1 [Dovitinib (CHIR-258)] (drug 10000 nM)	-12.6	-10.4	-10.4	-18.2	-5.66	-32.5	-8.7	-4.27	4.9	-16.4	-8.28	0.00734	-6.37	-10.6	-9.07
CCN(CC)CCOc1ccc(C(=C(Cl)c2ccccc2)c2ccccc2)cc1 [Clomifene citrate] (drug 10000 nM)	86.8	97.3	85.5	84	57.7	12.8	85.5	40.8	48.9	21.6	26.1	24.1	42.3	23.4	36.7
C=CC(=O)N1CCC[C@@H](n2nc(-c3ccc(Oc4ccccc4)cc3)c3c(N)ncnc32)C1 (drug 1000 nM)	98.2	96.5	69.5	94.6	-17.1	-5.41	23	19.8	14.1	-1.5	-2.82	1.82	5.37	7.99	7.55
c1ccc([C@H]2CN3CCSC3=N2)cc1 [Levamisole, (Tetramisole hydrochloride)] (drug 10000 nM)	-1.57	4.72	-0.587	-3.62	-9.5	-9.38	1.67	-4.38	3.27	1.99	-2.51	-0.419	4.7	1.62	3.25
COc1cc2ncnc(Nc3ccc(F)c(Cl)c3)c2cc1OCCCN1CCOCC1 [Gefitinib] (drug 10000 nM)	97.7	96.8	86.4	96.6	14.2	28	35.6	34.2	47.3	12.1	8.3	22.2	18.6	13.1	27.5
S=P(N1CC1)(N1CC1)N1CC1 [Thio-TEPA] (drug 100000 nM)	11.3	9.92	-3.59	-5.3	-0.761	-13.2	9.81	3.55	-1.13	2.16	-2.96	11.1	4.16	4.61	-3.56
Nc1ccn([C@@H]2O[C@H](CO)[C@@H](O)C2(F)F)c(=O)n1 [Gemcitabine] (drug 1000 nM)	1.24	-10.3	-11.7	-4.83	-2.89	25.8	4.61	25.9	21.5	32.3	7.44	9.23	11.2	16.9	19.4
CC/C(=C(\c1ccccc1)c1ccc(OCCN(C)C)cc1)c1ccccc1 [Tamoxifen citrate] (drug 10000 nM)	95.3	93.8	35.7	91.4	28.6	10.6	78.6	15.1	50	4.58	10.2	17.8	26.3	9.17	38.8
CO[C@H]1C[C@@H]2CC[C@@H](C)[C@@](O)(O2)C(=O)C(=O)N2CCCC[C@H]2C(=O)O[C@H]([C@H](C)C[C@@H]2CC[C@@H](OC(=O)C(C)(CO)CO)[C@H](OC)C2)CC(=O)[C@H](C)/C=C(\C)[C@@H](O)[C@@H](OC)C(=O)[C@H](C)C[C@H](C)/C=C/C=C/C=C/1C [Temsirolimus] (drug 100 nM)	20.6	14.5	8.72	3.21	10.6	40.1	35.9	31.8	24	26.7	13.2	30.5	36.2	33.7	28.7
